Ends that are not written are not given here.
Columns and labels:
MCMV [1] = details: for Plaque Reduction (Average from Fig 1): peptide 500 μg/ml, incubated with MEF 10.1 cells 30 min prior to MCMV (~100 pfu/well), percent reduction vs PBS-treated control, three independent experiments, at least three replicates each
Description: Peptides were screened for their ability to reduce viral infection using a plaque reduction assay. Cells were cultured in 12-well (VERO) or 24-well culture plates (MEF 10.1 and HFF). When cells reached ~80% confluence the media was removed and washed once with PBS before addition of peptide. As a control, cells were incubated with PBS alone. After a 30 min incubation with peptide in PBS, virus (~100 pfu/well for MCMV and ~30–40 pfu/well for HCMV and HSV) was added and incubated for another 90 min (HSV and HCMV) or 60 min (MCMV). Following virus incubation the peptide/virus mixture was removed and replaced with 0.75% carboxymethyl cellulose (Sigma Aldrich, St. Louis, MO) (CMC) + complete media (DMEM + P/S + L-Gln) for MCMV and HSV experiments or 0.5% agarose (Lonza, Rockland, ME) in complete media for HCMV experiments. The plates were incubated at 37° C in 5% CO2 for 4 days and when plaques began to develop, plates were stained with Coomassie stain (AMRESCO, Solon, Ohio). Due to the inability of HCMV to form distinct plaques on HAEC and ARPE-19 cells, infection in these cell types was measured by counting mCherry positive foci 14 days post infection. Plaques were counted manually using a dissection microscope. Data was analyzed using Prism 5.0 (GraphPad Software, La Jolla, CA). Data were expressed as percent infection (100 x (number of plaques after treatment/ the number of plaques in the PBS-treated wells)).
Seven synthetic peptides based on the structure of peptide p5 were screened for their ability to reduce MCMV infection in vitro (Table 1). In the initial screening assays all peptides were tested at a single concentration (500 μg/ml) using a plaque-reduction assay, in which mouse embryonic fibroblasts were incubated with the peptides for 30 min prior to the addition of virus.
(A) Peptides (500 μg/ml) with different net charges and lengths were incubated with cells 30 min prior to addition of MCMV (~100 pfu/well). Bars represent the average of the percent reduction in infection compared to PBS-treated control from three independent experiments with at least three replicates in each + SD. (B) p5+14 and CGGY-p5G (control peptide) were serially diluted and assayed in a plaque reduction assay as described in materials and methods.

MCMV [2] = assay: Heparin blockade of peptide-mediated plaque reduction; format: cell-based, murine CMV (MCMV)
Description: Peptide p5+14 (100 μM) was pre-incubated with heparin sodium salt (Acros Organics, NJ) at different concentrations for 1 h at 37°C. This heparin/peptide mix was added to the cells and incubated for 30 min at 37°C. Following the incubation, supernatant was aspirated and cells washed once with PBS to remove unbound/excess heparin or peptide. The cells were subsequently infected with ~100 pfu/well of MCMV. To test whether heparin treatment of cells interferes with virus infection, MEF 10.1 cells in a 24 well dish were pre-incubated with different concentrations of heparin for 1 hour and washed as described above. Following this pre-incubation, infection was initiated as described above. Finally to test the effect of heparin treatment on the infectivity of virus, MCMV was incubated with different concentrations of heparin for 1h before infecting cells. For all treatments, virus was removed 1h post infection and cells were overlaid with CMC. Plates were incubated for 4 days before staining and counting the plaques.
Fig 3 Soluble heparin interferes with peptide inhibition of virus infection. The effect of heparin on the activity of peptide and MCMV viral infectivity in vitro when (A) pre-incubated with the peptide (100 μM), (B) incubated with the cells before adding virus, and (C) pre-incubated with virus alone in a plaque reduction assay. […]

[3] = Self-aggregation of peptide (data not shown); format: physicochemical
MEF 10.1 cells = assay: Visualization of bound biotinylated peptide by fluorescence microscopy; format: binding, Mouse; details: biotinylated peptide 1.6 μg/mL in PBS overnight at 4°C, fixed MEF cells, Alexa Fluor 594-conjugated streptavidin
Description: Coverslips with fixed MEF cells were prepared, washed in PBS, and blocked with 1% BSA/PBS for 5 min. Following a PBS wash, the nuclei were stained using Hoechst (Life Technologies Molecular Probes, Grand Island, NY) 1:100 in H2O for 30 min at 37°C. Cells were then blocked using a casein block solution (Scytek) for 5 min, AVIDIN/Biotin blocks (VECTOR) for 20 min each at room temperature (RT) followed by a 5 min PBS wash. Biotinylated p5+14 or CGGY-p5G (control) at 1.6 μg/mL in PBS was added and incubated overnight at 4°C. Following a PBS wash Alexa Fluor 594-conjugated streptavidin (Molecular Probes) was added at a 1:200 dilution in PBS for 1h at RT. Cells were then permeabilized with 0.2% Triton X-100 (Sigma) in PBS for 10 min at RT and washed with a solution of 1% BSA in PBS for 30 min. The cells were then stained with Alexa Fluor 488-conjugated phalloidin (Molecular Probes) at a 1:100 dilution of stock in 1% BSA/PBS, for 45 min at RT to visualize actin filaments. Slides were cover-slipped using a fluorescent mounting medium (Dako) to minimize photobleaching.
Fig 2 p5+14 binding to cells is charge dependent. (A) Predicted α-helix structure of peptide p5+14 based on ITASSER modeling. (B) Biotinylated peptide p5+14 (left panel) or CGGY-p5G (right panel) was added to MEF 10.1 cells followed by addition of Alexa Fluor 594-conjugated streptavidin (red). […]

[4] = tested on: HCMV TB40/E-pp150-GFP adsorption to HFF cells; assay: Flow cytometric analysis of attached virus; format: cell-based, Human cytomegalovirus; details: peptide 100μM, HFF cells at 4°C, 1/2 h, then HCMV TB40/E pp150-GFP MOI 10 for 1h; GFP MFI vs PBS treated cells; 3 replicates
Description: HFF cells were grown in a 24 well dish and allowed to reach ~80% confluency. The cells were cooled to 4°C to prevent virus internalization before addition of peptide (100μM) and incubated for ½ h. Following the incubation, HCMV TB40/E pp150-GFP was added (MOI 10) at 4°C and incubated for 1h. Following the incubation, cells were removed from the wells using non-enzymatic cell stripper solution (Corning), fixed (with paraformaldehyde) and the data acquired using a BD FACS Calibur flowcytometer (BD Biosciences). The data was analyzed using FlowJo software (TreeStar).
Fig 5 Peptide p5+14 blocks adsorption of MCMV. (A) MCMV was preincubated with p5+14 peptide (100 μM) before diluting the virus/peptide to an ineffective peptide concentration (1 μM) and assayed in the plaque reduction assay as described in materials and methods. As a control, virus and peptide (100 μM) were added to cells simultaneously. […] Plaque reduction was measured in a plaque reduction assay. […] (C) Adsorption of HCMV TB40/E-pp150-GFP (MOI 10) fusion protein expressing HCMV was measured via flowcytometry in the presence of p5+14 (green), control peptide CGGY-p5G (orange) and PBS (blue). […] Inset is a scatter plot of the mean fluorescence intensity (MFI) for GFP with the line representing average of 3 replicates +/- SD for the different treatments.

GGGYSKAQKAQAKQAKQAQKAQKAQAKQAKQAQKAQKAQAKQAKQ [p5+14]
IC50 (MCMV [1]; read-out: IC50, reduction of MCMV infection, serial dilution of peptide, plaque reduction assay, MEF 10.1): 5.2 µM

heparin sodium salt
Reduction of infection, heparin pre-incubated with MCMV (MCMV [2]; MCMV incubated with heparin 1 h without peptide, all heparin concentrations ≥ 2 μg/mL): > 80%
MCMV infection after pre-incubation of the cells with heparin (MCMV [2]; MEF 10.1 cells pre-incubated with heparin 1 hour and washed prior to virus addition, no peptide): did not alter MCMV infection

CGGYSKAQKAQAKQAKQAQKAQKAQAKQAKQ [CGGY-p5]
Self-aggregation [3]: prone to self-aggregation
Plaque Reduction (Average from Fig 1) (MCMV [1]): ~61%

GGGYSKAQKAQAKQAKQAQKAQKAQAKQAKQ [p5]
Plaque Reduction (Average from Fig 1) (MCMV [1]): ~53%

MPRRR RIRRR QK [G2, reference compound]
Reduction in MCMV infection at 10 μM (MCMV [1]; peptide 10 μM, plaque reduction assay, comparison p5+14 vs G2): ineffective
Inhibition of MCMV infection at 100 μM (MCMV [1]; peptide 100 μM, plaque reduction assay, comparison p5+14 vs G2): effectively inhibited MCMV infection

GGGYSRAQRAQARQARQAQRAQRAQARQARQ [p5R]
Blocking of viral infection compared to peptide p5 (MCMV [1]; from Fig 1A, 500 μg/ml, MCMV): 2 fold
Plaque Reduction (Average from Fig 1) (MCMV [1]): ~75%

CGGYSGAQGAQAGQAGQAQGAQGAQAGQAGQ [CGGY-p5G, uncharged p5 variant, replaces Lys with Gly throughout; control peptide]
Binding of biotinylated peptide to mouse fibroblasts (MEF 10.1 cells): did not bind
Fluorescent virus attached to the cell surface [4]: no reduction in fluorescence

Source: PMC4436313, “Novel Heparan Sulfate-Binding Peptides for Blocking Herpesvirus Entry” (PLoS ONE, 2015)
